Series [1] can be described thus: Antiviral activity against HIV 1 NL4-3 infected in human MT4 cells assessed as reduction in viral replication and measured on day 3 post infection by Nano-glo luciferase reporter assay. The class given is functional, cell-based. (In general: A reporter such as luciferase makes a cellular process visible.)
A short description of series [2]: Selectivity index, ratio of CC50 for human MT4 cells to EC50 for antiviral activity against HIV1 NL4-3. Type of series: toxicity.
Series [3] in a line: Cytotoxicity against human MT4 cells treated for 3 days measured by Celltiter-glo luminescent assay. The class given is cell-based. As to conditions: time 3 day; call rule not given here. Background: Cellular ATP, detected with luciferase, serves as a proxy for viable cell number.
[4] abbreviates: Homo sapiens, NL4-3, MT4, 72 h, read-out: IC50.

`C=C(C)[C@@H]1CC[C@]2(C(=O)O)CC[C@]3(C)[C@H](CC[C@@H]4[C@@]5(C)C[C@@H](Cc6cn([C@]7(CO)O[C@@H](n8ccc(N)nc8=O)[C@@H](F)[C@@H]7O)nn6)[C@H](O)C(C)(C)[C@@H]5CC[C@]43C)[C@@H]12`: the half-maximal inhibitory concentration (IC50) in series [1] (setting [4]) was 7.8 nM. Also, the selectivity ratio in series [2] was 1230. This compound also had a CC50 at 72 h in series [3] of 9600 nM.
As for `C=C(C)[C@@H]1CC[C@]2(C(=O)OC)CC[C@]3(C)[C@H](CC[C@@H]4[C@@]5(C)C[C@@H](Cc6cn([C@]7(CO)O[C@@H](n8ccc(O)nc8=O)[C@@H](F)[C@@H]7O)nn6)C(=O)C(C)(C)[C@@H]5CC[C@]43C)[C@@H]12`, the IC50 entry in series [1] (mt4) was “Not Active”.
With `Cc1cn([C@H]2C[C@H](N=[N+]=[N-])[C@@H](CO)O2)c(=O)[nH]c1=O` [ZIDOVUDINE], the half-maximal inhibitory concentration (IC50) in series [1] (setting [4]) stood at 18 nM. Further, in series [2], the selectivity ratio was more than 20.6. This compound also returned a CC50 at 72 h in series [3] of more than 370 nM.
On to `C=C(C)[C@@H]1CC[C@]2(C(=O)OC)CC[C@]3(C)[C@H](CC[C@@H]4[C@@]5(C)C[C@@H](Cc6cn([C@H]7C[C@H](n8cc(C)c(O)nc8=O)O[C@@H]7CO)nn6)[C@H](O)C(C)(C)[C@@H]5CC[C@]43C)[C@@H]12`, for which the IC50 in series [1] (setting [4]) was more than 1300 nM. Further, in series [3], the CC50 at 72 h is more than 1300 nM.
With `C=C(C)[C@@H]1CC[C@]2(C(=O)O)CC[C@]3(C)[C@H](CC[C@@H]4[C@@]5(C)C[C@@H](Cc6cn([C@]7(CO)O[C@@H](n8ccc(O)nc8=O)[C@@H](F)[C@@H]7O)nn6)[C@H](O)C(C)(C)[C@@H]5CC[C@]43C)[C@@H]12`, the IC50 in series [1] (setting [4]) was 20 nM. Further, the selectivity ratio in series [2] was found to be 1190. In series [3], this compound showed a CC50 at 72 h of 23800 nM.
The like results for `[N-]=[N+]=N[C@]1(CO)O[C@@H](n2ccc(=O)[nH]c2=O)[C@@H](F)[C@@H]1O` were, in that order, 219 nM, more than 16 and more than 3480 nM.
Consider `C=C(C)[C@@H]1CC[C@]2(C(=O)O)CC[C@]3(C)[C@H](CC[C@@H]4[C@@]5(C)C[C@@H](Cc6cn([C@H]7C[C@H](n8cc(C)c(O)nc8=O)O[C@@H]7CO)nn6)[C@H](O)C(C)(C)[C@@H]5CC[C@]43C)[C@@H]12`, for which the half-maximal inhibitory concentration (IC50) in series [1] (setting [4]) is more than 1300 nM. The same compound gave a CC50 at 72 h in series [3] of more than 1300 nM.
Consider `C=C(C)[C@@H]1CC[C@]2(C(=O)OC)CC[C@]3(C)[C@H](CC[C@@H]4[C@@]5(C)C[C@@H](Cc6cn([C@]7(CO)O[C@@H](n8ccc(N)nc8=O)[C@@H](F)[C@@H]7O)nn6)[C@H](O)C(C)(C)[C@@H]5CC[C@]43C)[C@@H]12`, for which the 50% inhibitory concentration (IC50) in series [1] (setting [4]) was determined as 48 nM. The selectivity ratio in series [2] was more than 525. In series [3], this compound came in with a half-maximal cytotoxic concentration (CC50) at 72 h of more than 25200 nM.
The like results for `[N-]=[N+]=N[C@]1(CO)O[C@@H](n2ccc(N)nc2=O)[C@@H](F)[C@@H]1O` [RO-0622] were, in that order, 0.262 nM, 380 and 99.6 nM.
As to `C=C(C)[C@@H]1CC[C@]2(C(=O)OC)CC[C@]3(C)[C@H](CC[C@@H]4[C@@]5(C)C[C@@H](Cc6cn([C@]7(CO)O[C@@H](n8ccc(N)nc8=O)[C@@H](F)[C@@H]7O)nn6)C(=O)C(C)(C)[C@@H]5CC[C@]43C)[C@@H]12`, in series [1] (setting [4]), the concentration for half-maximal inhibition (IC50) stood at 97 nM. In addition, in series [2], the selectivity ratio was more than 260. Moreover, the CC50 at 72 h in series [3] was more than 25200 nM.
On to `C=C(C)[C@@H]1CC[C@]2(C(=O)OC)CC[C@]3(C)[C@H](CC[C@@H]4[C@@]5(C)C[C@@H](Cc6cn([C@]7(CO)O[C@@H](n8ccc(O)nc8=O)[C@@H](F)[C@@H]7O)nn6)[C@H](O)C(C)(C)[C@@H]5CC[C@]43C)[C@@H]12`, for which, in series [1] (mt4), the 50% inhibitory concentration (IC50) result was “Not Active”.
Consider `C=C(C)[C@@H]1CC[C@]2(C(=O)O)CC[C@]3(C)[C@H](CC[C@@H]4[C@@]5(C)CC[C@H](OC(=O)CC(C)(C)C(=O)O)C(C)(C)[C@@H]5CC[C@]43C)[C@@H]12` [BEVIRIMAT], for which the IC50 in series [1] (setting [4]) is more than 21 nM. Further, in series [2], the selectivity ratio is more than 326. The same compound showed a CC50 at 72 h in series [3] of more than 6840 nM.
Turning to `C=C(C)[C@@H]1CC[C@]2(C(=O)OC)CC[C@]3(C)[C@H](CC[C@@H]4[C@@]5(C)C[C@@H](Cc6cn([C@H]7C[C@H](n8cc(C)c(O)nc8=O)O[C@@H]7CO)nn6)C(=O)C(C)(C)[C@@H]5CC[C@]43C)[C@@H]12`, the IC50 entry in series [1] (mt4) is reported as “Not Active”.

Usually IC50 stands for the concentration at which inhibition is half-maximal. A word on the CC50: it is the concentration that lowers cell viability or growth by half.

These data come from ChEMBL document CHEMBL4725481, “Novel Betulinic Acid-Nucleoside Hybrids with Potent Anti-HIV Activity” (ACS Med Chem Lett, 2020).
